# Source: US20200048267A1, “OGA INHIBITOR COMPOUNDS” (Janssen Pharmaceutica NV, priority 2017, published 2020)
# Legend:
# [1] = biological target: T1, recombinant human Meningioma Expressed Antigen 5 (MGEA5), also referred to as O-GlcNAcase (OGA) (Homo sapiens, UniProt O60502); assay: OGA biochemical assay (inhibition of FM-GlcNAc hydrolysis, fluorescence); conditions: for IC50: read-out: ENZYMATIC hOGA, pIC50 (converted); for Emax: read-out: ENZYMATIC Emax (%)
# T1 construct: Full length OGA enzyme was purchased at OriGene (cat # TP322411); purchased OriGene TP322411
# T1 sequence (O60502 1-916): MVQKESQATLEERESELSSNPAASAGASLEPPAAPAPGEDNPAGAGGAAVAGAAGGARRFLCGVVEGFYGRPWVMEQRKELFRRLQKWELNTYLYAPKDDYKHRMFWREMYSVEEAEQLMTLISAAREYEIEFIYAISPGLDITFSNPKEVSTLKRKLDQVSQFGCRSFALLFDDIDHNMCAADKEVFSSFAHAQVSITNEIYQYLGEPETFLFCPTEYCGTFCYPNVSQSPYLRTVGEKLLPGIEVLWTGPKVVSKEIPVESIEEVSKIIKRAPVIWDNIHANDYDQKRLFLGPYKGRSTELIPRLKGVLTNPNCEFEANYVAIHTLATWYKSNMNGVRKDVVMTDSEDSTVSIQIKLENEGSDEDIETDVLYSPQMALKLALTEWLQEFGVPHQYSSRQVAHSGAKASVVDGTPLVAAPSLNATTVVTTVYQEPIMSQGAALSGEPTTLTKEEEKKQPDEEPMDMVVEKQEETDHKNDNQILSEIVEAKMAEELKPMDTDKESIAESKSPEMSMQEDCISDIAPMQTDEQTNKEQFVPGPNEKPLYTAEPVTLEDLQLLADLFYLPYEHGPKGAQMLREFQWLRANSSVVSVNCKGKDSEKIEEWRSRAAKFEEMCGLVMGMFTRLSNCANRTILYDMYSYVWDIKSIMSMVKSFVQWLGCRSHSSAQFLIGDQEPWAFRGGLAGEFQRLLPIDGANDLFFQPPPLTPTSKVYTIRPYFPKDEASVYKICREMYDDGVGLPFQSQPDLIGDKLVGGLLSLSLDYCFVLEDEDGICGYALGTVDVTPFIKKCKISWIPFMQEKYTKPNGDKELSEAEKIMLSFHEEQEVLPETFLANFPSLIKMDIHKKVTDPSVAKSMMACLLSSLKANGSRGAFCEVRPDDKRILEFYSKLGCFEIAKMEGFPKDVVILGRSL
# Source text: The assay is based on the inhibition of the hydrolysis of fluorescein mono-β-D-N-Acetyl-Glucosamine (FM-GlcNAc) (Mariappa et al. 2015, Biochem J 470:255) by the recombinant human Meningioma Expressed Antigen 5 (MGEA5), also referred to as O-GlcNAcase (OGA). The hydrolysis FM-GlcNAc (Marker Gene technologies, cat # M1485) results in the formation of B-D-N-glucosamineacetate and fluorescein. The fluorescence of the latter can be measured at excitation wavelength 485 nm and emission wavelength 538 nm. An increase in enzyme activity results in an increase in fluorescence signal. Full length OGA enzyme was purchased at OriGene (cat # TP322411). The enzyme was stored in 25 mM Tris.HCl, pH 7.3, 100 mM glycine, 10% glycerol at −20° C. Thiamet G and GlcNAcStatin were tested as reference compounds (Yuzwa et al. 2008 Nature Chemical Biology 4:483; Yuzwa et al. 2012 Nature Chemical Biology 8:393). The assay was performed in 200 mM Citrate/phosphate buffer supplemented with 0.005% Tween-20. 35.6 g Na2HPO4 2 H2O (Sigma, # C0759) were dissolved in 1 L water to obtain a 200 mM solution. 19.2 g citric acid (Merck, # 1.06580) was dissolved in 1 L water to obtain a 100 mM solution. pH of the sodium phosphate solution was adjusted with the citric acid solution to 7.2. The buffer to stop the reaction consists of a 500 mM Carbonate buffer, pH 11.0. 734 mg FM-GlcNAc were dissolved in 5.48 mL DMSO to obtain a 250 mM solution and was stored at −20° C. OGA was used at 2 nM concentration and FM-GlcNAc at a 100 uM final concentration. Dilutions were prepared in assay buffer.
# 50 nl of a compound dissolved in DMSO was dispensed on Black Proxiplate™ 384 Plus Assay plates (Perkin Elmer, #6008269) and 3 μl fl-OGA enzyme mix added subsequently. Plates were pre-incubated for 60 min at room temperature and then 2 μl FM-GlcNAc substrate mix added. […] Plates were briefly centrifuged for 1 min at 1000rpm and incubate at room temperature for 6 h. To stop the reaction 5 μl STOP buffer were added and plates centrifuge again 1 min at 1000 rpm.
# Fluorescence was quantified in the Thermo Scientific Fluoroskan Ascent or the PerkinElmer EnVision with excitation wavelength 485 nm and emission wavelength 538 nm.
# For analysis a best-fit curve is fitted by a minimum sum of squares method. From this an IC50 value and Hill coefficient was obtained. High control (no inhibitor) and low control (saturating concentrations of standard inhibitor) were used to define the minimum and maximum values.
# [2] = biological target: T2, OGA (Homo sapiens, UniProt O60502); assay: OGA cellular assay (ICC detection of O-GlcNAcylated proteins in HEK293 cells inducible for P301L mutant human Tau); assay type: cell-based; conditions: 6 hours incubation; for EC50: read-out: CELLULAR hOGA, pEC50 (converted)
# T2 construct: HEK293 cells inducible for P301L mutant human Tau (isoform 2N4R) were established at Janssen; endogenous in cells; host or cells: HEK293 cells inducible for P301L mutant human Tau (2N4R)
# T2 sequence (O60502 1-916): T1 sequence (O60502 1-916)
# Experimental: HEK293 cells inducible for P301L mutant human Tau (isoform 2N4R) were established at Janssen. Thiamet-G was used for both plate validation (high control) and as reference compound (reference EC50 assay validation). OGA inhibition is evaluated through the immunocytochemical (ICC) detection of O-GlcNAcylated proteins by the use of a monoclonal antibody (CTD110.6; Cell Signaling, #9875) detecting O-GlcNAcylated residues as previously described (Dorfmueller et al. 2010 Chemistry & biology, 17:1250). Inhibition of OGA will result in an increase of O-GlcNAcylated protein levels resulting in an increased signal in the experiment. Cell nuclei are stained with Hoechst to give a cell culture quality control and a rough estimate of immediate compounds toxicity, if any. ICC pictures are imaged with a Perkin Elmer Opera Phenix plate microscope and quantified with the provided software Perkin Elmer Harmony 4.1.
# Cells were propagated in DMEM high Glucose (Sigma, #D5796) following standard procedures. 2 days before the cell assay cells are split, counted and seeded in Poly-D-Lysine (PDL) coated 96-wells (Greiner, #655946) plate at a cell density of 12,000 cells per cm^2 (4,000 cells per well) in 100 µl of Assay Medium (Low Glucose medium is used to reduce basal levels of GlcNAcylation) (Park et al. 2014 The Journal of biological chemistry 289:13519). At the day of compound test medium from assay plates was removed and replenished with 90 μl of fresh Assay Medium. 10 μl of compounds at a 10 fold final concentration were added to the wells. Plates were centrifuged shortly before incubation in the cell incubator for 6 hours. DMSO concentration was set to 0.2%. Medium is discarded by applying vacuum. For staining of cells medium was removed and cells washed once with 100 μl D-PBS (Sigma, #D8537). From next step onwards unless other stated assay volume was always 50 μl and incubation was performed without agitation and at room temperature. Cells were fixed in 50 μl of a 4% paraformaldehyde (PFA, Alpha aesar, # 043368) PBS solution for 15 minutes at room temperature. […] Before analysis samples were washed 2 times manually for 5 minutes in ICC base buffer.
# Imaging is performed using Perkin Elmer Phenix Opera using a water 20× objective and recording 9 fields per well. Intensity readout at 488 nm is used as a measure of O-GlcNAcylation level of total proteins in wells. To assess potential toxicity of compounds nuclei were counted using the Hoechst staining. IC50-values are calculated using parametric non-linear regression model fitting. As a maximum inhibition Thiamet G at a 200 uM concentration is present on each plate. In addition, a concentration response of Thiamet G is calculated on each plate.
SMILES,ENZYMATIC Emax (%) [1] [%],IC50 [1] [nM],Emax [2] [%],EC50 [2] [nM],Emax [1] [%],ENZYMATIC hOGA; pIC50 [1]
"CC(=O)Nc1ncc(CN2CCC3(CCN(c4cc(C)nc(C)c4)C3)C2)s1 (single isomer, unassigned) [Product 3]",100.9,3.72,100,282,,
"Cc1cc(N2CCC3(CCN(Cc4ccc5nccnc5c4)C3)C2)cc(C)n1 (single isomer, unassigned) [Product 4]",,224,23.4,> 10000,98.8,
"Cc1cc(N2CCC3(CCN(C(C)c4ccc5nccnc5c4)C3)C2)cc(C)n1 (single isomer, unassigned) [Product 7]",,72.4,62.9,3800,98.6,
CC(=O)Nc1ncc(CN2CCC3(CCN(c4cc(C)nc(C)c4)C3)C2)s1 (centres unmarked) [Product 1],,,123,141,102,8.22
CC(=O)Nc1ncc(CN2CCC3(CCN(c4cc(C)nc(C)n4)C3)C2)s1 (centres unmarked) [Product 9],,,85.4,170,101,7.88
CC(=O)Nc1ncc(CN2CCC3(CCN(c4cncc(C5CC5)n4)C3)C2)s1 (centres unmarked) [Product 13],,,92.3,,100,7.69
CC(=O)Nc1cnc(N2CCC3(CCN(C(C)c4ccc5c(c4)OCO5)C3)C2)nc1 (centres unmarked) [Product 16],,2690,19.5,> 10000,79,
CCc1cncc(N2CCC3(CCN(Cc4cnc(NC(C)=O)s4)C3)C2)n1 (centres unmarked) [Product 19],,117,56.4,871,102,
Cc1cc(N2CCC3(CCN(Cc4ccc5scnc5c4)C3)C2)nc(C)n1 (centres unmarked) [Product 21],,170,23.6,> 1000,98.1,
Cc1cc(N2CCC3(CCN(Cc4ccc5nccnc5c4)C3)C2)nc(C)n1 (centres unmarked) [Product 22],,275,12,> 1000,96,
CNc1cncc(N2CCC3(CCN(Cc4cnc(NC(C)=O)s4)C3)C2)n1 (centres unmarked) [Product 26],,61.7,25.1,> 1000,101,

# The next lines start with the values.
ENZYMATIC Emax (%) [1] [%],IC50 [1] [nM],Emax [2] [%],EC50 [2] [nM],Emax [1] [%],ENZYMATIC hOGA; pIC50 [1],SMILES
,19.1,73.4,380,101,,CC(=O)Nc1ncc(CN2CCC3(CCN(c4cc(C)nc(C(F)(F)F)c4)C3)C2)s1 (centres unmarked) [Product 28]
,18.2,74.1,380,101,,Cc1cc(N2CCC3(CCN(C(C)c4ccc5sc(C)nc5c4)C3)C2)cc(C)n1 (centres unmarked) [Product 29]
,324,7.7,> 1000,100,,Cc1cc(N2CCC3(CCN(Cc4nc5ccccc5[nH]4)C3)C2)nc(C)n1 (centres unmarked) [Product 30]
,51.3,26.3,> 1000,102,,Cc1cc(N2CCC3(CCN(Cc4ccc5sc(C)nc5c4)C3)C2)nc(C)n1 (centres unmarked) [Product 32]
,69.2,6.9,> 1000,96.2,,Cc1cc(N2CCC3(CCN(Cc4ccc5sc(C)nc5c4)C3)C2)cc(C(F)(F)F)n1 (centres unmarked) [Product 33]
,,85.3,148,102,7.44,CC(=O)Nc1ncc(CN2CCC3(CCN(c4cc(C)ncc4C(F)(F)F)C3)C2)s1 (centres unmarked) [Product 34]
,24,87.9,200,101,,Cc1cc(N2CCC3(CCN(C(C)c4ccc5scnc5c4)C3)C2)cc(C)n1 (centres unmarked) [Product 36]
,182,20.4,> 1000,99,,Cc1cc(N2CCC3(CCN(C(C)c4cnc5c(c4)OCCO5)C3)C2)cc(C)n1 (centres unmarked) [Product 37]
,30.2,68.9,389,101,,Cc1cc(N2CCC3(CCN(C(C)c4ccc5c(c4)OCCO5)C3)C2)cc(C)n1 (centres unmarked) [Product 38]
,,87.3,77.6,101,7.87,CC(=O)Nc1ncc(CN2CCC3(CCN(c4cc(C)ncc4C)C3)C2)s1 (centres unmarked) [Product 39]
,,88.8,45.7,99.6,8.41,CC(=O)Nc1ncc(CN2CCC3(CCN(c4ncc(C)cc4C)C3)C2)s1 (centres unmarked) [Product 49]
,25.1,87.8,186,101,,CC(=O)Nc1ncc(CN2CCC3(CCN(c4cc(C)cnc4C)C3)C2)s1 (centres unmarked) [Product 50]
,8.51,93,123,100,,CC(=O)Nc1ncc(CN2CCC3(CCN(c4cnc(C)c(C)c4)C3)C2)s1 (centres unmarked) [Product 51]
